Laboratory results from publication PMC12418948, “Intranasal Administration of KCNN2 Blocking Peptide Improves Deficits in Cognitive Flexibility in Mouse Model of Fetal Alcohol Spectrum Disorders” (International Journal of Neuropsychopharmacology, 2025).
Entries after “also recorded” stand apart in the source; their conditions may differ. Positions of bridges follow the written chain, without caps; N, C: chain ends. Non-standard residues stand in square brackets, D forms with d. Residues, ends and D or L forms follow the SMILES beside them. Dab = NCC[C@H](N)C(=O)O

Key:
human KCNN2 = human KCNN2 (Homo sapiens, UniProt Q9H2S1); assay: Thallium flux assay, KCNN2 channel block; assay type: cell-based
Experimental: The effect of tamapin and Lei-Dab7 to block the KCNN2 channel was assessed by the thallium flux (potassium ion surrogate) assay using FLIPR Potassium Assay KIT (Molecular Devices, CA) and a FLIPR TETRA fluorescence imaging plate reader (Molecular Devices, CA). Human embryonic kidney (HEK) 293 cell line stably expressing human KCNN2 (Charles River, MA) were plated on BioCoat Poly-D-Lysine 384-well Black/Clear Plates (BD Biosciences, NJ) at 15 000 to 30 000 cells per well and incubated at 37°C overnight or until cells form near confluent monolayer. A baseline fluorescence was recorded during the pre-incubation period, followed by activation in the stimulus buffer (K^+-free buffer with 5 mM Tl^+). The effects of tamapin and Lei-Dab7 on KCNN2 to inhibit KCNN2 channel were evaluated at 4 different concentrations (n = 4) each, based on fluorescence changes due to the treatments. The signal elicited by the respective positive control agonist [1 μM A23187 (Tocris, UK)] was set to 0% inhibition, and the signal in the presence of the respective positive control antagonists [3 μM UCL1684 (Tocris, UK)] was set to 100% inhibition. The IC50 values were defined as the concentration at which the percent inhibition equals 50.
To determine the dose of Lei-Dab7 to be tested, we compared the effect of Lei-Dab7 and tamapin in blocking human KCNN2 expressed in HEK293 cells using a thallium-based potassium ion channel assay. […] Based on the effective dose of tamapin in mitigating motor skill–learning deficits in PAE mice (15 μg/kg body weight via i.p.)[17] and higher brain uptake of therapeutics by intranasal delivery than by i.p. delivery, we chose a dose of 3.0 μg/kg body weight to test the effect of intranasal administration of Lei-Dab7.
Supplementary Figure 3. Concentration-response relationships of Lei-Dab7 and Tamapin on the Inhibition of KCNN2 channels. (A, B) The concentration-response relationships of Lei-Dab7 (A) and Tamapin (B) on the inhibition of KCNN2 (SK2) channels examined by the thallium flux assay are presented. […]

KCNN2 = assay: Intranasal delivery to PFC, immunohistochemistry for biotin and KCNN2; assay type: in vivo, mouse (CD-1); details: PFC in addition to motor cortex
Experimental: Mice were deeply anesthetized with isoflurane (Henry Schein, OH) and perfused through the ascending aorta with ice cold 4% paraformaldehyde (PFA) following a standard laboratory protocol. Brains were collected and post-fixed in 4% PFA at 4°C overnight, followed by incubation in 10% and 30% sucrose in PBS at 4°C for 24 hours. Coronal sections at 60 μm thickness were made using a cryostat (CM3050S; Leica, Germany). Free floating sections were incubated with hydrogen peroxide in methanol (1:4) solution at −20°C for 20 minutes to inactivate endogenous peroxidase activity. […]
Lei-Dab7 or biotinylated Lei-Dab7 (Smartox Biotechnology, France) was dissolved in PBS and administered to mice intranasally at 3.0 μg/kg/day. […] Physiological monitoring was recorded at 30 minutes and 24 hours post administration by using PhysioSuite (Kent Scientific, CT).
KCNN2, NeuN, GFAP, IBA1, and biotin-positive cells were quantified. […] Allen Brain Atlas was used to define different brain regions visualized by DAPI staining, and single-plane images from defined regions were used for the quantification. The researcher conducting the quantification was blinded to treatment groups throughout the analysis to minimize bias. The size of the region of interest was determined for each analysis to include a sufficient number of labeled cells with clear and detailed staining. […]

Chain of human KCNN2 (Q9H2S1 whole entry): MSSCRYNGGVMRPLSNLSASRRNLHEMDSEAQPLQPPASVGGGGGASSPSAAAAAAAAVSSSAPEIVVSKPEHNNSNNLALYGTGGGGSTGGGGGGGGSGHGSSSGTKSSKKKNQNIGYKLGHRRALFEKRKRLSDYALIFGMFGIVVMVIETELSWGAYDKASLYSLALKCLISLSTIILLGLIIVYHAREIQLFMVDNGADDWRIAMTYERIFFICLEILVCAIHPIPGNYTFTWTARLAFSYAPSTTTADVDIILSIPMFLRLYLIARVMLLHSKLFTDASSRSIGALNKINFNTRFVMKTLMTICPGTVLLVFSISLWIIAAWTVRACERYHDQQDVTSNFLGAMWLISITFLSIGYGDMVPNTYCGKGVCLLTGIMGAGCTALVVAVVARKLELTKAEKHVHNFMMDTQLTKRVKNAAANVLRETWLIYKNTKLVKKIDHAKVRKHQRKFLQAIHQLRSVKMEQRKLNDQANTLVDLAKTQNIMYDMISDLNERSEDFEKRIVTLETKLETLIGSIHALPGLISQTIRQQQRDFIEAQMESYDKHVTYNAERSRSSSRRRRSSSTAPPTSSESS

CC[C@H](C)[C@@H]1NC(=O)[C@@H]2CSSC[C@H](NC(=O)[C@H](Cc3ccccc3)NC(=O)[C@H](C)N)C(=O)N[C@@H](CC(N)=O)C(=O)N[C@@H](CC(C)C)C(=O)N[C@@H](CCCNC(=N)N)C(=O)N[C@@H](CCN)C(=O)N[C@H]3CSSC[C@H](NC(=O)[C@H](CCCCN)NC(=O)[C@H](CC(=O)O)NC(=O)CNC1=O)C(=O)N[C@@H](CCC(=O)O)C(=O)N[C@H](C(=O)N[C@H](C(=O)N[C@@H](CCCCN)C(=O)N[C@@H](Cc1c[nH]cn1)C(N)=O)C(C)C)CSSC[C@H](NC(=O)[C@H](CO)NC(=O)[C@H](CC(C)C)NC(=O)[C@H](CCC(N)=O)NC3=O)C(=O)N[C@@H](CCCNC(=N)N)C(=O)N[C@@H](CO)C(=O)N[C@@H](CC(C)C)C(=O)NCC(=O)N[C@@H](CC(C)C)C(=O)N[C@@H](CC(C)C)C(=O)NCC(=O)N[C@@H](CCCCN)C(=O)N2 [Lei-Dab7, Leiurotoxin-1 Dab7] (H-AFCNLR[Dab]CQLSCRSLGLLGKCIGDKCECVKH-NH2; disulfide 3-21, 8-26, 12-28)
IC50 (human KCNN2; HEK293 stably expressing human KCNN2, thallium flux, FLIPR Potassium Assay Kit, FLIPR TETRA, 4 concentrations, n = 4, 0% = 1 μM A23187, 100% = 3 μM UCL1684): 720 nM
IC50 of Lei-Dab7 relative to tamapin (times higher) (human KCNN2; ratio of IC50 Lei-Dab7 to IC50 tamapin, human KCNN2 in HEK293): > 10 times
delivery to target brain regions (KCNN2): efficiently reaches the target in the brain; also recorded: effectively reaches its target regions, including the PFC (Figs. 3, 4) in addition to the motor cortex
